Biological target: T1, bacteriophage T4 DNA polymerase (Enterobacteria phage T4, UniProt P04415)
T1 construct: made in house
T1 sequence (P04415 1-898): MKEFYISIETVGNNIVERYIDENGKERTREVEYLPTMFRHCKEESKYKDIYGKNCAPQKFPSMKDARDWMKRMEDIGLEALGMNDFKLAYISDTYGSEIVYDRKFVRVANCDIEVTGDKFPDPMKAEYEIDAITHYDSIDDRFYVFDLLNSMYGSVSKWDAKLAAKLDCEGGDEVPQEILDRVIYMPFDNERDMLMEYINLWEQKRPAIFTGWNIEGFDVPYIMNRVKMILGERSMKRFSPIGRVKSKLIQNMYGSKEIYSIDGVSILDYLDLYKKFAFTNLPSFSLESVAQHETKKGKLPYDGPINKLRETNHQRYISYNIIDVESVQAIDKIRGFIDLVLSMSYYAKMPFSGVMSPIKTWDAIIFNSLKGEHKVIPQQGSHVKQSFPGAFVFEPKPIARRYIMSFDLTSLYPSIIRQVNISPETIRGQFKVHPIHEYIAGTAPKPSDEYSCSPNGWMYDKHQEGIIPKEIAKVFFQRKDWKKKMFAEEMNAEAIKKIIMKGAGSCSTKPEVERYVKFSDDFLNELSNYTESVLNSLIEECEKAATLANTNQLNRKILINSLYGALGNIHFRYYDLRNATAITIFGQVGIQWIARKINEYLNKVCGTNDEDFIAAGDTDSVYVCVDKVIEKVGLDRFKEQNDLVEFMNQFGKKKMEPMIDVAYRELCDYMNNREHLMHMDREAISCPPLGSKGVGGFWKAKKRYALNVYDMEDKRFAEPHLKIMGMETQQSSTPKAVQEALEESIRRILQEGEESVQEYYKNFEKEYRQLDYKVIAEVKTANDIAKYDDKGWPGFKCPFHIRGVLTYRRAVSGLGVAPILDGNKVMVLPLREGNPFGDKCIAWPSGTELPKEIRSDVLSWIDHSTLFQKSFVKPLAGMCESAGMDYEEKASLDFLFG
Assay: Counter-screen against bacteriophage T4 DNA polymerase
Assay type: biochemical
Conditions: for % inhibition T4 10' 2.5 / % inhibition T4 10' 5 / % inhibition T4 10' 10 / % inhibition T4 10' 20 / % inhibition T4 10' 40 / % inhibition T4 10' 80: read at 10'; for % inhibition T4 10' 2.5 / % inhibition T4 70' 2.5 / % inhibition T4 130' 2.5 / % inhibition T4 40' 2.5 / % inhibition T4 90' 2.5 / % inhibition T4 180' 2.5: concentration 2.5; for % inhibition T4 10' 20 / % inhibition T4 70' 20 / % inhibition T4 130' 20 / % inhibition T4 40' 20 / % inhibition T4 90' 20 / % inhibition T4 180' 20: concentration 20; for % inhibition T4 10' 40 / % inhibition T4 70' 40 / % inhibition T4 130' 40 / % inhibition T4 40' 40 / % inhibition T4 90' 40 / % inhibition T4 180' 40: concentration 40; for % inhibition T4 10' 80 / % inhibition T4 70' 80 / % inhibition T4 130' 80 / % inhibition T4 40' 80 / % inhibition T4 90' 80 / % inhibition T4 180' 80: concentration 80; for % inhibition T4 70' 2.5 / % inhibition T4 70' 5 / % inhibition T4 70' 10 / % inhibition T4 70' 20 / % inhibition T4 70' 40 / % inhibition T4 70' 80: read at 70'; for % inhibition T4 130' 2.5 / % inhibition T4 130' 5 / % inhibition T4 130' 10 / % inhibition T4 130' 20 / % inhibition T4 130' 40 / % inhibition T4 130' 80: read at 130'; for % inhibition T4 40' 2.5 / % inhibition T4 40' 5 / % inhibition T4 40' 10 / % inhibition T4 40' 20 / % inhibition T4 40' 40 / % inhibition T4 40' 80: read at 40'; for % inhibition T4 90' 2.5 / % inhibition T4 90' 5 / % inhibition T4 90' 10 / % inhibition T4 90' 20 / % inhibition T4 90' 40 / % inhibition T4 90' 80: read at 90'; for % inhibition T4 180' 2.5 / % inhibition T4 180' 5 / % inhibition T4 180' 10 / % inhibition T4 180' 20 / % inhibition T4 180' 40 / % inhibition T4 180' 80: read at 180'
In short: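 IC50 values come from dose-response testing of each compound against T4 DNA polymerase. This B-family polymerase was purified in-house and used as the counter-screen.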

C#CC(C=CC)OC(=O)c1ccccc1C(=O)O (centres unmarked) [Molecule 61, CC=CC(OC(=O)c1ccccc1C(=O)O)C#C]
% inhibition T4 10' 2.5 (DRC-1): 9.3785%
% inhibition T4 10' 5 (DRC-1, concentration 5): 11.31%
% inhibition T4 10' 10 (DRC-1, concentration 10): 22.4398%
% inhibition T4 10' 20 (DRC-1): 21.3205%
% inhibition T4 10' 40 (DRC-1): 28.2089%
% inhibition T4 10' 80 (DRC-1): 28.2741%
% inhibition T4 70' 2.5 (DRC-1): 5.999%
% inhibition T4 70' 5 (DRC-1, concentration 5): 5.822%
% inhibition T4 70' 10 (DRC-1, concentration 10): 15.1139%
% inhibition T4 70' 20 (DRC-1): 11.2187%
% inhibition T4 70' 40 (DRC-1): 17.6446%
% inhibition T4 70' 80 (DRC-1): 16.7862%
% inhibition T4 130' 2.5 (DRC-1): 3.358%
% inhibition T4 130' 5 (DRC-1, concentration 5): 2.079%
% inhibition T4 130' 10 (DRC-1, concentration 10): 10.4202%
% inhibition T4 130' 20 (DRC-1): 6.447%
% inhibition T4 130' 40 (DRC-1): 13.4652%
% inhibition T4 130' 80 (DRC-1): 12.4594%
% inhibition T4 10' 2.5 (DRC-2): -4.4%
% inhibition T4 10' 5 (DRC-2, concentration 5): -3%
% inhibition T4 10' 10 (DRC-2, concentration 10): 4%
% inhibition T4 10' 20 (DRC-2): 6.52%
% inhibition T4 10' 40 (DRC-2): 12%
% inhibition T4 10' 80 (DRC-2): 8%
% inhibition T4 40' 2.5 (DRC-2): -4.37%
% inhibition T4 40' 5 (DRC-2, concentration 5): -3.69%
% inhibition T4 40' 10 (DRC-2, concentration 10): 2%
% inhibition T4 40' 20 (DRC-2): 3.35%
% inhibition T4 40' 40 (DRC-2): 9%
% inhibition T4 40' 80 (DRC-2): 4.65%
% inhibition T4 90' 2.5 (DRC-2): -3.79%
% inhibition T4 90' 5 (DRC-2, concentration 5): -6%
% inhibition T4 90' 10 (DRC-2, concentration 10): 0.277%
% inhibition T4 90' 20 (DRC-2): 0.217%
% inhibition T4 90' 40 (DRC-2): 6%
% inhibition T4 90' 80 (DRC-2): 0.315%
% inhibition T4 180' 2.5 (DRC-2): -5.62%
% inhibition T4 180' 5 (DRC-2, concentration 5): -11%
% inhibition T4 180' 10 (DRC-2, concentration 10): -7%
% inhibition T4 180' 20 (DRC-2): -5.56%
% inhibition T4 180' 40 (DRC-2): -0.544%
% inhibition T4 180' 80 (DRC-2): -3.3%

Cc1ccc(NC(=O)Cn2ccc3c(=O)[nH]ccc32)cc1F [Molecule 48, O=C(Cn1ccc2c1cc[nH]c2=O)Nc1ccc(c(c1)F)C]
% inhibition T4 10' (DRC-2, 10', concentration 5): -12%
% inhibition T4 40' (DRC-2, 40', concentration 5): -12%
% inhibition T4 90' (DRC-2, 90', concentration 10): -15%
% inhibition T4 180' (DRC-2, concentration 5): -12%
% inhibition T4 180' (DRC-2, concentration 10): -15%

Cc1ccsc1Cn1c(C)ccc1C [Molecule 70, Cc1ccsc1Cn1c(C)ccc1C]
% inhibition T4 10' 2.5 (DRC-1): -4.493%
% inhibition T4 10' 5 (DRC-1, concentration 5): -2.675%
% inhibition T4 10' 10 (DRC-1, concentration 10): 9.004%
% inhibition T4 10' 20 (DRC-1): 13.0915%
% inhibition T4 10' 40 (DRC-1): 20.7391%
% inhibition T4 10' 80 (DRC-1): -6.46%
% inhibition T4 70' 2.5 (DRC-1): -3.335%
% inhibition T4 70' 5 (DRC-1, concentration 5): -3.037%
% inhibition T4 70' 10 (DRC-1, concentration 10): 6.944%
% inhibition T4 70' 20 (DRC-1): 8.488%
% inhibition T4 70' 40 (DRC-1): 14.2763%
% inhibition T4 70' 80 (DRC-1): -12.9684%
% inhibition T4 130' 2.5 (DRC-1): -4.899%
% inhibition T4 130' 5 (DRC-1, concentration 5): -4.557%
% inhibition T4 130' 10 (DRC-1, concentration 10): 3.714%
% inhibition T4 130' 20 (DRC-1): 4.205%
% inhibition T4 130' 40 (DRC-1): 10.2962%
% inhibition T4 130' 80 (DRC-1): -25.7177%
% inhibition T4 10' 2.5 (DRC-2): -7%
% inhibition T4 10' 5 (DRC-2, concentration 5): -1.66%
% inhibition T4 10' 10 (DRC-2, concentration 10): 10%
% inhibition T4 10' 20 (DRC-2): 11%
% inhibition T4 10' 40 (DRC-2): 14%
% inhibition T4 10' 80 (DRC-2): 7.37%
% inhibition T4 40' 2.5 (DRC-2): -7%
% inhibition T4 40' 5 (DRC-2, concentration 5): -2%
% inhibition T4 40' 10 (DRC-2, concentration 10): 10%
% inhibition T4 40' 20 (DRC-2): 11%
% inhibition T4 40' 40 (DRC-2): 14%
% inhibition T4 40' 80 (DRC-2): 7%
% inhibition T4 90' 2.5 (DRC-2): -5%
% inhibition T4 90' 5 (DRC-2, concentration 5): -2.51%
% inhibition T4 90' 10 (DRC-2, concentration 10): 8%
% inhibition T4 90' 20 (DRC-2): 9%
% inhibition T4 90' 40 (DRC-2): 12%
% inhibition T4 90' 80 (DRC-2): 5%
% inhibition T4 180' 2.5 (DRC-2): -7%
% inhibition T4 180' 5 (DRC-2, concentration 5): -9%
% inhibition T4 180' 10 (DRC-2, concentration 10): 1.9%
% inhibition T4 180' 20 (DRC-2): 4%
% inhibition T4 180' 40 (DRC-2): 8%
% inhibition T4 180' 80 (DRC-2): 1.21%

From paper PMC9090415, “Discovery of small molecule inhibitors of Plasmodium falciparum apicoplast DNA polymerase” (Journal of Enzyme Inhibition and Medicinal Chemistry, 2022)
